The source of these data is patent publication US20240009170A1, “INHIBITION OF GLYCOGEN SYNTHASE KINASE-3 (GSK-3)” (Brown University, priority 2020, published 2024).

One data set deals with GSK-3. The note with it: cited from earlier work.
The test system of data set [1] is HCT-116 colorectal cancer cells. Kind of data set: Co-culture of HCT-116 and NK-92 cells with or without αPD-1 therapy. The note with it: not statistically significant. In kind it is cell-based, Human. The procedure:
(§1) Immune cell co-culture experiments. Co-culture experiments were conducted with GFP+ SW480 or HCT-116 colorectal cancer cells and either NK-92 natural killer cells or TALL-104 T cells in a 48-well plate, in the presence or absence of 9-ING-41. HCT-116 cells were labeled using CellTracker™ Green CMFDA (5-chloromethylfluorescein diacetate), immune cells (NK-92, TALL-104) were labeled using CellTracker™ Blue CMAC Dye (7-amino-4-chloromethylcoumarin), and ethidium homodimer-1 (EthD-1) was used as a marker of cell death (Invitrogen, Thermo Fisher Scientific, Waltham, MA, USA).

The test system is the same in data set [2]. Description: Co-culture of HCT-116 and TALL-104 cells with or without αPD-1 therapy. In kind it is cell-based, Human. The note with it: for TALL-104-mediated tumor cell killing: αPD-1 antibody added to co-culture, compared to TALL-104 cells alone. The procedure:
as §1
9-ING-41 increases tumor cell death in combination with αPD-1 therapy in a co-culture of HCT-116 colorectal cancer cells and immune cells. The inventors were interested in the applicability of GS3K-3 inhibitors such as 9-ING-41 in combination with immune checkpoint blockade. The inventors next performed co-cultures of immune cells (TALL-104, NK-92) and tumor cells (HCT-116) in the presence or absence of 9-ING-41, as well as either pembrolizumab® or nivolumab®, two humanized monoclonal antibodies against PD-1. The inventors evaluated HCT-116 cells in this co-culture model to determine if the 9-ING-41-mediated increase in immune cell-mediated SW480 cell killing could be reproduced in another colorectal cancer cell line.

Consider `[Li]` [Lithium], for which the therapeutic index entry with GSK-3 was “narrow therapeutic index”.

As to “nivolumab®: humanized monoclonal antibody against PD-1”, in data set [1], the “benefit in combination with NK-92 compared to NK-92 alone” value was “limited benefit”. Moreover, the “TALL-104-mediated tumor cell killing” value in data set [2] was “increased amount of TALL-104-mediated tumor cell killing”.

For the compound “pembrolizumab®: humanized monoclonal antibody against PD-1”, the “benefit in combination with NK-92 compared to NK-92 alone” value in data set [1] is recorded as “limited benefit”. In addition, in data set [2], the “cell death, pembrolizumab+TALL-104 compared to nivolumab+TALL-104” value is on record as “slight increase in cell death” and the “TALL-104-mediated tumor cell killing” value is “increased amount of TALL-104-mediated tumor cell killing”.
